Among the data in US20260083708A1, “IL-17 MODULATORS AND USES THEREOF” (NNOCARE PHARMA INC., priority 2024, published 2026) are IC50 values, retold here.

Assay [1] has as its system IL-17AF-induced IL-17 signaling pathway. In words: Inhibition of IL-17AF-induced IL-17 signaling pathway. It counts as cell-based. Conditions: Homo sapiens; IL-17AF used instead of IL-17AA; read-out: IC50 for Inhibiting IL-AF Signaling. An excerpt:
(§1) Interleukin-17 (IL-17) reporter cell line (HEK-Blue IL-17, InvivoGen, Catalog Number hkb-i117) is created by genetically engineering human IL-17RA/IL-17RC heterodimeric receptor and downstream adapter protein ACT1 into human embryonic kidney 293 cells (HEK293). These cells also express secreted embryonic alkaline phosphatase (SEAP) reporter gene induced by NF-κB and AP-1. Therefore, IL-17AA can activate NF-κB and AP-1 signaling pathways inside the cells by binding to IL-17RA/RC on cell membrane, leading to expression of SEAP protein. After a colorimetric reaction between SEAP protein and Quanti-Blue solution, the absorbance at 620 nm is measured using a microplate reader (BioTek H1M, Agilent, Catalog Number SH1M-SN) to determine IL-17AA-activated signaling pathway.
(§2) In the experiment, HEK-Blue IL-17 cells were cultured at 37° C. under 5% CO2 conditions using the recommended medium from InvivoGen's instruction. Compounds were serially diluted starting from 10 μM. 4 μL of each compound solution was added to 32 μL of cells (10,000 cells) at 37° C. for 1 hour. After pre-incubation, 4 μL of IL-17AA with a final concentration of 2.5 ng/mL (Sino Biological, Catalog Number 12047-HNAS) was added to the cells, and incubation was continued for additional 20 hours. After incubation, 5 μL of cell culture supernatant was added to 45 μL of Quanti-Blue for the colorimetric reaction. The group without tested compound had the highest absorbance at 620 nm, and the group without IL-17AA had the lowest absorbance at 620 nm.
(§3) Therefore, the percentage of inhibition of tested compound was calculated as
(§4) Experimental results were analyzed using XLfit (IDBS) for 4-parameter nonlinear fitting analysis to provide the IC50 value for each tested compound (Table 1).
Example 44. Inhibition of IL-17AF-Induced IL-17 Signaling Pathway
The same experimental procedure to Example […] was followed where IL-17AF was used instead of IL-17AA.

The next assay deals with T1, IL-17AA and IL-17RA (Homo sapiens, UniProt Q16552).
T1 construct: purchased Sino Biological 12047-H07B (IL-17AA); 10895-H02H (IL-17RA)
T1 sequence (Q16552 24-155): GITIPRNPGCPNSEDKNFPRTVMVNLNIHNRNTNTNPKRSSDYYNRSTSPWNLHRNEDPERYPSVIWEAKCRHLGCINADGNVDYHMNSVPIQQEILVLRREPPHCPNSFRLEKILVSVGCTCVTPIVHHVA
Description: Competitive inhibition of human IL-17AA and IL-17RA binding (HTRF). Conditions: recombinant IL-17AA (His-tag) and IL-17RA (hFc-tag); read-out: IC50 for Inhibiting IL-AA/IL-RA Binding. As to the method:
Example 42. Competitive Inhibition of Human IL-17AA and IL-17RA Binding
Recombinant IL-17AA (His-tag, Catalog Number 12047-H07B) and IL-17RA (hFc-tag, Catalog Number 10895-H02H) were purchased from Sino Biological. In the experiment, 10 μL of IL-17AA (1 nM) or IL-17RA (1 nM) was added to 10 μL of anti-6His-Tb (0.4 nM, Revvity, Catalog Number 61HISTLF) or anti-human IgG-d2 (1 μg/mL, anti-human IgG-d2, Revvity, Catalog Number 61HFCDAF), respectively and incubated at room temperature for 1 hour. Compounds were serially diluted starting from 10 μM. 5 μL of each compound solution was incubated with 5 μL of a mixture of IL-17AA and anti-6His-Tb at room temperature for 2 hours. After pre-incubation, to which was added 10 μL of a mixture of IL-17RA and anti-human IgG-d2, and incubation was continued for additional 20 minutes. Subsequently, a microplate reader (Envision, PerkinElmer) was used to detect fluorescence intensity at 615 nm and 665 nm, and the ratio of intensity thereof indicates the degree of IL-17AA and IL-17RA interaction. The ratio of intensity in the absence of tested compound was the highest value of binding between IL-17AA and IL-17RA, and the ratio of intensity in the absence of IL-17AA was the lowest value.
as §3
Experimental results were analyzed using XLfit (IDBS) for 4-parameter nonlinear fitting analysis, to provide the IC50 value for each tested compound (Table 1).

Assay [2] relates to IL-17AA-induced IL-17 signaling pathway. Description: Inhibition of IL-17AA-induced IL-17 signaling pathway in HEK-Blue IL-17 reporter cells (SEAP). The format is cell-based. Conditions: Homo sapiens; HEK-Blue IL-17 cells, IL-17AA 2.5 ng/mL, 20 hours; read-out: IC50 for Inhibiting IL-AA Signaling.
Excerpt: Example 43. Inhibition of IL-17AA-Induced IL-17 Signaling Pathway
as §1, §2, §3, §4

Take `CCn1nccc1C(=O)N[C@H](C(=O)Nc1ccc([C@H](C)[C@@H](NC(=O)N(C)C2CC2)c2nncn2CC2CC2)cc1F)C(C1CC1)C1CC1` [Compound 21, N-((S)-1,1-dicyclopropyl-3-((4-((1R,2S)-1-(3-cyclopropyl-3-methylureido)-1-(4-(cyclopropylmethyl)-4H-1,2,4-triazol-3-yl)propan-2-yl)-2-fluorophenyl)amino)-3-oxopropan-2-yl)-1-ethyl-1H-pyrazole-5-carboxamide]: the IC50 in assay [1] was found to be 3.7 nM; at IL-17AA and IL-17RA it was 2.2 nM; in assay [2], 1.8 nM.
Take `CC(=O)N[C@@H](c1nncn1CC1CC1)[C@@H](C)c1ccc(NC(=O)[C@@H](NC(=O)c2ccnn2C(C)C)C(C2CC2)C2CC2)c(F)c1` [Compound 22, N-((S)-1-((4-((1R,2S)-1-acetamido-1-(4-(cyclopropylmethyl)-4H-1,2,4-triazol-3-yl)propan-2-yl)-2-fluorophenyl)amino)-3,3-dicyclopropyl-1-oxopropan-2-yl)-1-isopropyl-1H-pyrazole-5-carboxamide]: the IC50 is 46 nM in assay [1]; 13 nM on IL-17AA and IL-17RA; 28 nM in assay [2].
Consider `CCn1nccc1C(=O)N[C@H](C(=O)Nc1ccc([C@H](C)[C@@H](NC(=O)COC)c2nncn2CC23CC(F)(C2)C3)cc1F)C(C1CC1)C1CC1` [Compound 23, N-((S)-1,1-dicyclopropyl-3-((2-fluoro-4-((1R,2S)-1-(4-((3-fluorobicyclo[1.1.1]pentan-1-yl)methyl)-4H-1,2,4-triazol-3-yl)-1-(2-methoxyacetamido)propan-2-yl)phenyl)amino)-3-oxopropan-2-yl)-1-ethyl-1H-pyrazole-5-carboxamide], for which the IC50 in assay [1] came to 91 nM; at IL-17AA and IL-17RA, 21 nM; in assay [2], 25 nM.
For `CCn1nccc1C(=O)N[C@H](C(=O)Nc1ccc([C@H](C)[C@@H](NC(=O)COC)c2nnnn2CC2CC2)cc1F)C(C1CC1)C1CC1` [Compound 24, N-((S)-1,1-dicyclopropyl-3-((4-((1R,2S)-1-(1-(cyclopropylmethyl)-1H-tetrazol-5-yl)-1-(2-methoxyacetamido)propan-2-yl)-2-fluorophenyl)amino)-3-oxopropan-2-yl)-1-ethyl-1H-pyrazole-5-carboxamide], in that order: 10 nM, 3.2 nM and 2.5 nM.
As to `CCn1nccc1C(=O)N[C@H](C(=O)Nc1ccc([C@H](C)[C@@H](NC(=O)COC)c2nc(C)nn2CC2CC2)cc1F)C(C1CC1)C1CC1` [Compound 25, N-((S)-1,1-dicyclopropyl-3-((4-((1R,2S)-1-(1-(cyclopropylmethyl)-3-methyl-1H-1,2,4-triazol-5-yl)-1-(2-methoxyacetamido)propan-2-yl)-2-fluorophenyl)amino)-3-oxopropan-2-yl)-1-ethyl-1H-pyrazole-5-carboxamide], the IC50 in assay [1] is 313 nM; on IL-17AA and IL-17RA it was 57 nM; in assay [2], 115 nM.
For `CCc1nonc1C(=O)N[C@H](C(=O)Nc1ccc([C@H](C)[C@@H](NC(=O)[C@H](C)OC)c2nncn2CC2CC2)cc1F)C(C1CC1)C1CC1` [Compound 26, N-((S)-1,1-dicyclopropyl-3-((4-((1R,2S)-1-(4-(cyclopropylmethyl)-4H-1,2,4-triazol-3-yl)-1-((S)-2-methoxypropanamido)propan-2-yl)-2-fluorophenyl)amino)-3-oxopropan-2-yl)-4-ethyl-1,2,5-oxadiazole-3-carboxamide], in that order: 4.5 nM, 0.8 nM and 2 nM.
Regarding `CCn1nccc1C(=O)N[C@H](C(=O)Nc1ccc([C@H](C)[C@@H](NC(=O)COC)c2nccnc2OC2CC2)cc1F)C(C1CC1)C1CC1` [Compound 27, N-((S)-1-((4-((1R,2S)-1-(3-cyclopropoxypyrazin-2-yl)-1-(2-methoxyacetamido)propan-2-yl)-2-fluorophenyl)amino)-3,3-dicyclopropyl-1-oxopropan-2-yl)-1-ethyl-1H-pyrazole-5-carboxamide], the IC50 in assay [1] stood at 102 nM; at IL-17AA and IL-17RA, 27 nM; in assay [2] it was 39 nM.
For `CCn1nccc1C(=O)N[C@H](C(=O)Nc1ccc([C@H](C)[C@@H](NC(=O)COC)c2ncccc2CC2CC2)cc1F)C(C1CC1)C1CC1` [Compound 28, N-((S)-1,1-dicyclopropyl-3-((4-((1R,2S)-1-(3-(cyclopropylmethyl)pyridin-2-yl)-1-(2-methoxyacetamido)propan-2-yl)-2-fluorophenyl)amino)-3-oxopropan-2-yl)-1-ethyl-1H-pyrazole-5-carboxamide], in that order: 24 nM, 7.8 nM and 8.4 nM.
Consider `CCc1nonc1C(=O)N[C@H](C(=O)Nc1ccc([C@H](C)[C@@H](NC(=O)COC)c2nnnn2CC2CC2)cc1F)C(C1CC1)C1CC1` [Compound 29, N-((S)-1,1-dicyclopropyl-3-((4-((1R,2S)-1-(1-(cyclopropylmethyl)-1H-tetrazol-5-yl)-1-(2-methoxyacetamido)propan-2-yl)-2-fluorophenyl)amino)-3-oxopropan-2-yl)-4-ethyl-1,2,5-oxadiazole-3-carboxamide], for which the IC50 in assay [1] was 3.2 nM; on IL-17AA and IL-17RA, 0.9 nM; in assay [2], 2 nM.
For `CCCn1cnc([C@H](NC(=O)COC)[C@@H](C)c2ccc(NC(=O)[C@@H](NC(=O)c3ccnn3CC)C(C3CC3)C3CC3)c(F)c2)n1` [Compound 30, N-((S)-1,1-dicyclopropyl-3-((2-fluoro-4-((1R,2S)-1-(2-methoxyacetamido)-1-(1-propyl-1H-1,2,4-triazol-3-yl)propan-2-yl)phenyl)amino)-3-oxopropan-2-yl)-1-ethyl-1H-pyrazole-5-carboxamide], the IC50 in assay [1] came to 66 nM; at IL-17AA and IL-17RA it was 23 nM; in assay [2], 32 nM.
The like results for `CCCn1ncnc1[C@H](NC(=O)COC)[C@@H](C)c1ccc(NC(=O)[C@@H](NC(=O)c2ccnn2CC)C(C2CC2)C2CC2)c(F)c1` [Compound 31, N-((S)-1,1-dicyclopropyl-3-((2-fluoro-4-((1R,2S)-1-(2-methoxyacetamido)-1-(1-propyl-1H-1,2,4-triazol-5-yl)propan-2-yl)phenyl)amino)-3-oxopropan-2-yl)-1-ethyl-1H-pyrazole-5-carboxamide] were, in that order, 13 nM, 11 nM and 6.9 nM.
Take `COCC(=O)N[C@@H](c1nncn1CC1CC1)[C@@H](C)c1ccc(NC(=O)[C@@H](NC(=O)OCc2cc(C(F)F)on2)C(C2CC2)C2CC2)c(F)c1` [Compound 32, (5-(Difluoromethyl)isoxazol-3-yl)methyl ((S)-1,1-dicyclopropyl-3-((4-((1R,2S)-1-(4-(cyclopropylmethyl)-4H-1,2,4-triazol-3-yl)-1-(2-methoxyacetamido)propan-2-yl)-2-fluorophenyl)amino)-3-oxopropan-2-yl)carbamate]: the IC50 in assay [1] is 8.6 nM; at IL-17AA and IL-17RA it was 2.8 nM; in assay [2], 5.7 nM.
